The values below come from patent US5593970A, “Heterocyclic anthracycline analogs” (priority 1994, dated 1997).

pIC50: −log10 of the molar value. Where two headings read alike, the source gives them in different places.

Experiment in all cases: Microculture tetrazolium assay
Common to all, as to format: cell-based

The subject of one experiment is T47D. Conditions: read-out: IC50.
Another experiment deals with LOX. Conditions: read-out: IC50.
For the next experiment, the system named is HT29.
The test system of another experiment is SKVLB. Conditions: for VLB/OV3: IC50 ratio SKVLB/SKOV3; for pIC50: SKVLB, read-out: IC50.
The next experiment has as its system SKOV3. Conditions: read-out: IC50.
[1] abbreviates: Homo sapiens, HT-29, HT29, read-out: IC50.

For the compound `C[C@@H]1O[C@@H](O[C@H]2O[C@H](C(=O)COC(=O)C(C)(C)C)CC3=C2C(=O)c2cc4ccccc4c(O)c2C3=O)C[C@H](NC(=O)C(F)(F)F)[C@@H]1O` [BCH-1136, (1'S,1R,3S)-1,2,3,4,5,12-hexahydro-6-hydroxy-3-trimethylacetoxyaceto-1-N-trifluoroacetyl-L-daunosamine-(2-oxo)-naphthacene-5,12-dione], the pIC50 (usually −log10 of the IC50, conventionally taken in molar units) was 4.72 with T47D (Homo sapiens); 4.91 in the experiment with LOX; 4.94 with HT29 (setting [1]); 4.64 in the experiment with SKVLB; 4.74 in the experiment on SKOV3 (Homo sapiens, SK-OV-3, SKOV3). Also, in the experiment with SKVLB, the VLB/OV3 worked out at 1.28.

As to `C[C@@H]1O[C@@H](O[C@@H]2O[C@@H](C(=O)COC(=O)C(C)(C)C)CC3=C2C(=O)c2cc4ccccc4c(O)c2C3=O)C[C@H](NC(=O)C(F)(F)F)[C@@H]1O` [BCH-1137, (1'S,1S,3R)-1,2,3,4,5,12-hexahydro-6-hydroxy-3-trimethylacetoxyaceto-1-N-trifluoroacetyl-L-daunosamine-(2-oxo) naphthacene-5,12-dione], the negative logarithm of the IC50 (pIC50) with T47D (Homo sapiens) is 5.08; in the experiment with LOX, 5.05; in the experiment with HT29 (setting [1]), 5.20; in the experiment with SKVLB, 4.85; with SKOV3 (Homo sapiens, SK-OV-3, SKOV3) it was 4.86. Also, in the experiment on SKVLB, the VLB/OV3 is on record as 1.03.

`COC(=O)C1CC2=C(CS1)C(=O)c1cc3ccccc3c(O)c1C2=O` (stereo not shown) [BCH-1149]: the negative logarithm of the IC50 (pIC50) with T47D (Homo sapiens) is 4.41; with LOX, 4.60; in the experiment with HT29 (setting [1]), 4.53; in the experiment with SKVLB it was 4.38; with SKOV3 (Homo sapiens, SK-OV-3, SKOV3), 4.52. The VLB/OV3 in the experiment with SKVLB stood at 1.38.

As for `COC(=O)C1CC2=C(CS1)C(=O)c1c(cc3ccccc3c1O)C2=O` (stereo not shown) [BCH-1150], the negative-log IC50 (pIC50) with T47D (Homo sapiens) is 4.11; with LOX it was 4.07; in the experiment with HT29 (setting [1]), 4.19; in the experiment on SKVLB, 4.00; in the experiment with SKOV3 (Homo sapiens, SK-OV-3, SKOV3) it was 4.00.

On to `CC(=O)C1CC2=C(CS1)C(=O)c1cc3ccccc3c(O)c1C2=O` (stereo not shown) [BCH-1151], for which the pIC50 with T47D (Homo sapiens) was 4.20; with LOX it was 4.52; in the experiment on HT29 (setting [1]) it was 4.23; in the experiment with SKVLB, 4.12; with SKOV3 (Homo sapiens, SK-OV-3, SKOV3) it was 4.27. Besides, the VLB/OV3 in the experiment on SKVLB is 1.41.

For the compound `CC(=O)C1CC2=C(CS1)C(=O)c1c(cc3ccccc3c1O)C2=O` (stereo not shown) [BCH-1152], the negative-log IC50 (pIC50) was 4.00 with T47D (Homo sapiens); 4.00 with LOX; 4.00 in the experiment on HT29 (setting [1]); 4.00 in the experiment on SKVLB; 4.00 in the experiment with SKOV3 (Homo sapiens, SK-OV-3, SKOV3).

For the compound `C[C@@H]1O[C@@H](O[C@H]2O[C@H](C3(CO)OCCCO3)CC3=C2C(=O)c2cc4ccccc4c(O)c2C3=O)C[C@H](N)[C@@H]1O` [BCH-1153], the pIC50 is 5.33 in the experiment on T47D (Homo sapiens); 5.54 in the experiment with LOX; 5.53 in the experiment with HT29 (setting [1]); 4.83 in the experiment with SKVLB; 5.52 in the experiment on SKOV3 (Homo sapiens, SK-OV-3, SKOV3). The VLB/OV3 with SKVLB was determined as 4.93.

In the case of `C[C@@H]1O[C@@H](O[C@@H]2O[C@@H](C3(CO)OCCCO3)CC3=C2C(=O)c2cc4ccccc4c(O)c2C3=O)C[C@H](N)[C@@H]1O` [BCH-1154], the negative logarithm of the IC50 (pIC50) in the experiment on T47D (Homo sapiens) is 4.85; in the experiment on LOX it was 5.43; in the experiment with HT29 (setting [1]), 5.07; in the experiment on SKVLB, 4.55; with SKOV3 (Homo sapiens, SK-OV-3, SKOV3) it was 5.05. Moreover, the VLB/OV3 in the experiment with SKVLB is recorded as 3.18.

On to `C=C[C@H]1CC2=C(C(=O)c3cc4ccccc4c(O)c3C2=O)[C@H](O[C@H]2C[C@H](NC(=O)C(F)(F)F)[C@H](O)[C@H](C)O2)O1` [BCH-1155], for which the negative logarithm of the IC50 (pIC50) in the experiment on T47D (Homo sapiens) was 5.07; in the experiment with LOX it was 5.40; with HT29 (setting [1]), 5.06; in the experiment with SKVLB, 5.15; with SKOV3 (Homo sapiens, SK-OV-3, SKOV3), 5.20. For the same compound, the VLB/OV3 in the experiment with SKVLB was found to be 1.12.

Consider `CC(=O)C1Cc2c(O)c3c(c(O)c2C(O[C@H]2C[C@H](N=[N+]=[N-])[C@H](I)[C@H](C)O2)O1)C(=O)c1ccccc1C3=O` (stereo partly shown) [BCH-1156], for which the negative-log IC50 (pIC50) with T47D (Homo sapiens) was 4.00; in the experiment on LOX it was 4.00; in the experiment with HT29 (setting [1]) it was 4.44; in the experiment with SKVLB, 4.00; with SKOV3 (Homo sapiens, SK-OV-3, SKOV3) it was 4.58.

Regarding `CC(=O)C1CC2=C(C(=O)c3cc4ccccc4c(O)c3C2=O)C(OC2CC(N=[N+]=[N-])C(I)C(C)O2)O1` (stereo not shown) [BCH-1157], the pIC50 in the experiment on T47D (Homo sapiens) is 4.42; in the experiment on LOX it was below 4.00; in the experiment on HT29 (setting [1]), 4.89; with SKVLB (listed as BCH1157), 4.68; in the experiment on SKOV3 (Homo sapiens, SK-OV-3, SKOV3), 4.83. Further, the VLB/OV3 with SKVLB (listed as BCH1157) came out at 1.43.

On to `CC(=O)C1CC2=C(C(=O)c3cc4ccccc4c(O)c3C2=O)C(OC2CC(N=[N+]=[N-])C(I)C(C)O2)O1` (stereo not shown) [BCH-1158], for which the pIC50 with T47D was 4.59; with LOX, below 4.00; with HT29 (HT29, read-out: IC50), 5.08; in the experiment with SKVLB (listed as BCH1158) it was 5.21; in the experiment with SKOV3 (SKOV3), 5.08. In addition, the VLB/OV3 in the experiment on SKVLB (listed as BCH1158) is 0.74.

With `CC(=O)O[C@@H]1[C@H](C)O[C@@H](O[C@H]2O[C@H](C(C)=O)CC3=C2C(=O)c2cc4ccccc4c(O)c2C3=O)C[C@@H]1OC(C)=O` [BCH-1165, (1'S,1R,3S)-methyl-(6-hydroxy-1-(2',3',4',6'-tetradeoxy-3',4'-diacetyl-L-lyxohexopyranose)-5,12-dioxo-3,4,5,12-tetrahydroanthraceno-[2,3-c]pyran-3-yl) ketone], the negative logarithm of the IC50 (pIC50) in the experiment with T47D (Homo sapiens) was 4.50; in the experiment on LOX, 4.63; in the experiment on HT29 (setting [1]), 5.00; with SKVLB, 4.38; in the experiment with SKOV3 (Homo sapiens, SK-OV-3, SKOV3), 4.52. Further, the VLB/OV3 with SKVLB was 1.38.

`CC(=O)O[C@@H]1[C@H](C)O[C@@H](O[C@@H]2O[C@@H](C(C)=O)CC3=C2C(=O)c2cc4ccccc4c(O)c2C3=O)C[C@@H]1OC(C)=O` [BCH-1166, (1'S,1S,3R)-methyl-(6-hydroxy-1-(2',3',4',6'-tetradeoxy-3',4'-diacetyl-L-lyxohexopyranose)-5,12-dioxo-3,4,5,12-tetrahydroanthraceno-[2,3-c]pyran-3-yl) ketone]: the negative-log IC50 (pIC50) with T47D (Homo sapiens) is 4.50; in the experiment on LOX it was 4.52; in the experiment on HT29 (setting [1]), 4.90; in the experiment with SKVLB, 4.29; in the experiment with SKOV3 (Homo sapiens, SK-OV-3, SKOV3) it was 4.61. Moreover, in the experiment on SKVLB, the VLB/OV3 is recorded as 2.08.

For `CC(=O)C1CC2=C(C(=O)c3cc4ccccc4c(O)c3C2=O)C(O)S1` (stereo not drawn) [BCH-1167, Trans-3-aceto-1,6-hydroxy-1,2,3,4,5,12-hexahydro-2-(sulfur)naphthacene-5,12-dione and cis-3-aceto-1,6-hydroxy-1,2,3,4,5,12-hexahydro-2-(sulfur)naphthacene-5,12-dione], the pIC50 with T47D (Homo sapiens) is below 4.00; with LOX it was below 4.00; in the experiment on HT29 (setting [1]), below 4.00; in the experiment with SKVLB, below 4.00; in the experiment with SKOV3 (Homo sapiens, SK-OV-3, SKOV3) it was below 4.00.

As to `C=CC1CC2=C(C(=O)c3cc4ccccc4c(O)c3C2=O)C(O[C@H]2C[C@H](NC(=O)C(F)(F)F)[C@H](O)[C@H](C)O2)O1` (stereo partly shown) [BCH-1168], the pIC50 with T47D (Homo sapiens) was 4.07; in the experiment on LOX, 4.00; in the experiment on HT29 (setting [1]), 4.00; with SKVLB, 4.03; in the experiment on SKOV3 (Homo sapiens, SK-OV-3, SKOV3) it was 4.06. In the experiment with SKVLB, the VLB/OV3 amounted to 1.07.

Regarding `C[C@@H]1O[C@@H](O[C@H]2O[C@H](C(=O)CO)CC3=C2C(=O)c2cc4ccccc4c(O)c2C3=O)C[C@H](NC(=O)C(F)(F)F)[C@@H]1O` [BCH-1175, (1', S,1R,3S)-1,2,3,4,5,12-hexahydro-6-hydroxy-3-hydroxy-aceto-1-N-trifluoroacetyl-L-daunosamine-(2-oxo) naphthacene-5, 12-dione], the negative-log IC50 (pIC50) in the experiment on T47D (Homo sapiens) is below 4.00; in the experiment with LOX, below 4.00; with HT29 (setting [1]), below 4.00; in the experiment with SKVLB it was below 4.00; in the experiment on SKOV3 (Homo sapiens, SK-OV-3, SKOV3) it was below 4.00.

Turning to `CC(=O)OCC1([C@@H]2CC3=C(C(=O)c4c(cc5ccccc5c4OC(C)=O)C3=O)[C@@H](O[C@H]3C[C@H](NC(=O)C(F)(F)F)[C@H](O)[C@H](C)O3)O2)OCCCO1` [BCH-1178], the pIC50 in the experiment with T47D (Homo sapiens) was 5.15; with LOX, 4.91; in the experiment on HT29 (Homo sapiens, HT-29, HT29), 5.25; in the experiment with SKVLB it was 4.89; with SKOV3 (Homo sapiens, SK-OV-3, SKOV3), 5.16. Besides, in the experiment with SKVLB, the VLB/OV3 was 1.85.

On to `CC(=O)OCC1(C2CC3=C(C(=O)c4c(cc5ccccc5c4OC(C)=O)C3=O)C(O[C@H]3C[C@H](NC(=O)C(F)(F)F)[C@H](O)[C@H](C)O3)O2)OCCCO1` (stereo partly shown) [BCH-1179], for which the negative-log IC50 (pIC50) in the experiment with T47D (Homo sapiens) was 5.31; in the experiment with LOX it was 4.96; with HT29 (setting [1]), 5.39; in the experiment with SKVLB, 5.08; in the experiment on SKOV3 (Homo sapiens, SK-OV-3, SKOV3) it was 5.28. Besides, in the experiment with SKVLB, the VLB/OV3 was 1.58.

`C[C@@H]1O[C@@H](O[C@@H]2O[C@@H](C(=O)CO)CC3=C2C(=O)c2cc4ccccc4c(O)c2C3=O)C[C@H](NC(=O)C(F)(F)F)[C@@H]1O` [BCH-1182, (1 'S,1S,3R)-1,2,3,4,5,12-hexahydro-6-hydroxy-3-hydroxy-aceto-1-N-trifluoroacetyl-L-daunosamine-(2-oxo) naphthacene-5,12-dione]: the pIC50 is 4.55 in the experiment with T47D (Homo sapiens); 5.70 in the experiment with LOX; 4.60 with HT29 (setting [1]); 4.13 in the experiment on SKVLB; 4.63 with SKOV3 (Homo sapiens, SK-OV-3, SKOV3). Besides, the VLB/OV3 in the experiment with SKVLB came to 3.12.

As to `C=CC1CC2=C(C(=O)c3cc4ccccc4c(O)c3C2=O)C(O[C@H]2C[C@H](N)[C@H](O)[C@H](C)O2)O1` (stereo partly shown) [BCH-1611], the negative logarithm of the IC50 (pIC50) is 5.67 with T47D (Homo sapiens); 5.37 in the experiment on LOX; 5.55 in the experiment with HT29 (setting [1]); 5.14 with SKVLB; 5.72 in the experiment with SKOV3 (Homo sapiens, SK-OV-3, SKOV3). Further, the VLB/OV3 in the experiment on SKVLB came out at 3.87.
